The text below walks through data of EP4464714A1, “SCREENING METHOD FOR CELL-REPELLING PEPTIDES” (Karlsruher Institut für Technologie, priority 2023, dated 2024).

“Also recorded” adds a separate entry of the source. Where two headings read alike, the source gives them in different places.

The subject of test [1] is SW620 colorectal cancer cells expressing the TOP-GFP construct. As to the kind of experiment: High-throughput screening for cell repulsion/adhesion on a high-density peptide chip, fluorescence detection. It counts as cell-based. The conditions noted are these: incubated for 24 hours on the peptide chip; for cell adhesion / cell repulsion on peptide spots, measured by the strength of the fluorescent signal: 1×10^7 cells in 3 ml, 30 µm × 30 µm spots.

The test system is the same in test [2]. Put plainly: Formation of cell patterns on alternating peptide patterns, continuous fluorescence detection (live cell imaging). It counts as cell-based. The conditions noted are these: patterns of 3 sp × 3 sp and 1 sp (30 µm); up to 24 hours of incubation; Fig. 10. An excerpt:
The settlement of cells on alternating patterns of the cell-repellent and cell-adhesive peptides IAMTPPNATEASKPQ and FLCSLFAPVCLDRPI, respectively, were examined over time (Fig. 10). […] Peptide patterns in the form of the letters KI were made of squares of 3 sp × 3 sp. The cellular patterns are clearly distinguishable as long as the area of the cell-repellent peptide has a size of 30 µm in diameter (1 sp). To follow the formation of such cellular patterns, the behaviour of cells was examined over time (continuous fluorescence detection). Fig. 10b, 10c, 10d and 10e show the different states of the same chip fragment with cell-repellent peptides at different incubation times. Relatively quickly, in the first minutes after seeding, cells randomly distribute over the entire surface (Fig. 10b) and start to form clusters (Fig. 10c), which adhere to the bottom. After that, the cell clusters leave the area of peptides with cell repulsion (Fig. 10d). […]
On the day of incubation, cells were detached using Accutase followed by selection in serum-containing medium (DMEM). […] After 24 hours, the plates were either analysed using confocal microscopy or fixed.
For imaging of the cells, a Zeiss LSM800 confocal microscope was used. […] The microscopic slide was then transferred to a live cell incubation chamber (37°C) and observed via continuous fluorescence detection for a period of 24 hours.

The subject of test [3] is CD44v6. The conditions noted are these: murine (2) background; Matzke-Ogi et al. 2016; cited from earlier work.
For the next test, the system named is pancreatic tumour. Conditions: human (1) or murine (2) background; Matzke-Ogi et al. 2016; cited from earlier work.
For test [4], the system named is CD44v6. Conditions: human (1) background; Matzke-Ogi et al. 2016; cited from earlier work.

As for “QETWFQNGNQGKN [modified peptide of …, replacement of the amino acid W by N]”, the “cell adhesion / cell repulsion on peptide spots, measured by the strength of the fluorescent signal” value (from here on “cell adhesion / cell repulsion”) in test [1] is “maximum cell repulsion”.

Turning to SDKKPVAHVVANPQAE [SEQ ID No. 11], the “cell adhesion / cell repulsion” value in test [1] was “repulsive”.

Turning to QETWF, the “cell adhesion / cell repulsion” value in test [1] is “top ten cell-repellent peptides”.

As to FLCSLFAPVCLDRPI, the “settlement of cells on alternating peptide patterns over time” value in test [2] is on record as “cell-adhesive”.

On to IAMTPPNATEASKPQ, for which the “settlement of cells on alternating peptide patterns over time” value in test [2] is listed as “cell-repellent”.

For QETWFQNGWQGKNP, the “co-receptor function of CD44v6 of the receptor tyrosine kinase MET” value (shortened to “co-receptor function”) with CD44v6 [3] is reported as “inhibit the co-receptor function of CD44v6”. Moreover, the “pancreatic tumour growth and metastasis” value in the test with pancreatic tumour is “inhibit pancreatic tumour growth and metastasis”.

QNGNQGKN: the “cell adhesion / cell repulsion” value in test [1] is listed as “strong cell repulsion”.

Consider NRWHE, for which the “co-receptor function” value in the test with CD44v6 [4] is given as “inhibit the co-receptor function of CD44v6”. Moreover, in the test with pancreatic tumour, the “pancreatic tumour growth and metastasis” value was “inhibit pancreatic tumour growth and metastasis”.

On to PCQRETPEGAEAKP [SEQ ID No. 13], for which the “cell adhesion / cell repulsion” value in test [1] was “repulsive”.

On to KENGDKKIVPKKKKP, for which the “cell pattern (filling of peptide spots)” value in test [1] (Fig. 2) is “well-defined island shape”.

Consider NGWQG, for which the “co-receptor function” value with CD44v6 [3] is “inhibit the co-receptor function of CD44v6”. The “pancreatic tumour growth and metastasis” value in the test with pancreatic tumour was “inhibit pancreatic tumour growth and metastasis”.

On to “YPYDVPDYA [HA epitope, reference compound]”, for which, in test [1], the “cell adhesion / cell repulsion” value is reported as “strong cell-attractive; also recorded: highest adhesion to cells”.

Regarding TPPNATEASKPQGTT, the “cell adhesion / cell repulsion” value in test [1] is “strongest cell-repellent properties”.

In the case of EVK, in test [1], the “cell adhesion / cell repulsion” value is reported as “repellent motif for cells”.

As for AIKNLPPPTKGQEGS, the “cell adhesion / cell repulsion” value in test [1] was “strongest cell-repellent properties”.

Regarding KEQWFGNRWHEGYR, in the test with CD44v6 [4], the “co-receptor function” value was “inhibit the co-receptor function of CD44v6”. Besides, in the test with pancreatic tumour, the “pancreatic tumour growth and metastasis” value is “inhibit pancreatic tumour growth and metastasis”.

As for HPGSAVSASNAIKNL, the “cell adhesion / cell repulsion” value in test [1] was “strongest cell-repellent properties”.
